{"source": "patent US20220135539A1", "about": "“BIARYL AMIDE COMPOUNDS, PREPARATION METHODS AND MEDICAL APPLICATIONS THEREOF” (Eternity Bioscience Inc., priority 2020, published 2022)", "key": {"human recombinant cRAF": {"target": "human recombinant cRAF (Homo sapiens, UniProt P04049)", "sequence (P04049 whole entry Y340D/Y341D, form open)": "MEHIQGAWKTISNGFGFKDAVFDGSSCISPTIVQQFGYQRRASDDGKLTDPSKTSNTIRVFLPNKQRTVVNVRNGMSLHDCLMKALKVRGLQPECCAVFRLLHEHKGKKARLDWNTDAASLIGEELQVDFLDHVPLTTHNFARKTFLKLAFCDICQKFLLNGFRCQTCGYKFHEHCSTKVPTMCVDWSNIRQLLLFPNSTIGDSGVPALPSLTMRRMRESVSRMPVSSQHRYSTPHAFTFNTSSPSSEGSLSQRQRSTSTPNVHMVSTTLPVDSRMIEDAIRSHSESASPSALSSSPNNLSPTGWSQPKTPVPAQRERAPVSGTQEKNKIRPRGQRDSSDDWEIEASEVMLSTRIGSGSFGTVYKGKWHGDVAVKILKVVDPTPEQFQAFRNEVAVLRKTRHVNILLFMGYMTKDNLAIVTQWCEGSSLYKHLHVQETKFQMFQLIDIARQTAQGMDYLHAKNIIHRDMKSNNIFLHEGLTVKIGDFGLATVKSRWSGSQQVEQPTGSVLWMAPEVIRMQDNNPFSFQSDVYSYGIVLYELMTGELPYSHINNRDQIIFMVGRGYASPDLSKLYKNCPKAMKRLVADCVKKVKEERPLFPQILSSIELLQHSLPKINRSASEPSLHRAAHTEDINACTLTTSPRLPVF", "assay": "cRAF Inhibition Assay (TR-FRET)", "assay_type": "biochemical", "method": "(§1) Activity of human recombinant cRAF were assessed in vitro using time-resolved fluorescence resonance energy transfer (TR-FRET) assay. The assay was performed according to the kit instructions. Briefly, the cRAF enzyme (BPS Bioscience, cat #40008) was diluted to 0.027 ng/μL using the 1× kinase buffer A (Life Tech, cat #PV6135, 5× dilution with H2O); the Fluorescein labeled-MAP2K1 (Life Tech, Cat #PV4812) was diluted to 0.5 μM; ATP (Life Tech, cat #PV3227) was diluted to 20 μM; 2.54, of each diluted reagent was added to a 384-well plate (PerkinElmer, ProxiPlate-384 Plus, 6008280) and mixed together; 2.54, serial diluted compound were added into the mixture. 104, 400-fold diluted LanthaScreen Tb-pMAP2K1 (pSer217/221) antibody (Life Tech, cat #PV4817) was then added to each kinase reaction. The reactions were incubated at Room Temperature for 1 hour. The plate was then read on PHERAstar FSX using 340/490/520 module. Inhibition data were calculated by comparison to vehicle control wells for 0% inhibition and non-stimulated control wells for 100% inhibition. Dose response curves were then generated to determine the concentration required to suppress 50% of enzymatic response (IC50) as derived by non-linear regression analysis using GraphPad Prism."}, "human recombinant BRAF": {"target": "T1, human recombinant BRAF (Homo sapiens, UniProt P15056)", "T1 construct": "purchased BPS Bioscience 40065", "assay": "BRAF^WT Inhibition Assay (TR-FRET)", "assay_type": "biochemical", "method": "as §1, with “BRAF” for “cRAF”, “#40065)” for “#40008)”"}, "[1]": {"target": "T2, human recombinant V600E mutant BRAF (Homo sapiens, UniProt P15056, V600E)", "T2 construct": "purchased BPS Bioscience 40533", "T2 sequence (P15056 whole entry V600E)": "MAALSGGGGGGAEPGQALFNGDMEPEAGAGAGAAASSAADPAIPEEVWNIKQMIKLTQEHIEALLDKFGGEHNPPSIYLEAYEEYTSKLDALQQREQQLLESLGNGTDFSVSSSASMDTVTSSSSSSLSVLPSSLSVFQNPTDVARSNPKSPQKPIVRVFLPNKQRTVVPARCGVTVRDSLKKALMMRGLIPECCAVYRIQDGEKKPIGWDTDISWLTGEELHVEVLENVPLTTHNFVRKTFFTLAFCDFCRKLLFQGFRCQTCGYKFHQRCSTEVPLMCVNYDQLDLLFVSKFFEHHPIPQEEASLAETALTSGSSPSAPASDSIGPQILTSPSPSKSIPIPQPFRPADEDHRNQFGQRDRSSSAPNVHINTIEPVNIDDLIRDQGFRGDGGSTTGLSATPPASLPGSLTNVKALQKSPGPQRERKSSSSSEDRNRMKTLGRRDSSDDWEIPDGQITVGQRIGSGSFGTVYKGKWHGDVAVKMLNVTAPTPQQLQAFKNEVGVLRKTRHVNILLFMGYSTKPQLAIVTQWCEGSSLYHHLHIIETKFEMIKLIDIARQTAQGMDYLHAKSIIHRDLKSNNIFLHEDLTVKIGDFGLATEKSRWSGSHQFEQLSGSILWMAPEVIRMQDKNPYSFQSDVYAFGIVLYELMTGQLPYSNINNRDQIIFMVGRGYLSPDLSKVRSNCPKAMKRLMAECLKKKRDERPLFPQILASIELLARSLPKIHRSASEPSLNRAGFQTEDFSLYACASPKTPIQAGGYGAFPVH", "assay": "BRAF^V600E Inhibition Assay (TR-FRET)", "assay_type": "biochemical", "method": "Activity of human recombinant V600E mutant BRAF were assessed in vitro using time-resolved fluorescence resonance energy transfer (TR-FRET) assay. The assay was performed according to the kit instructions. Briefly, the V600E mutant BRAF enzyme (BPS Bioscience, cat #40533) was diluted to 0.027 ng/μL using the 1× kinase buffer A (Life Tech, cat #PV6135, 5× dilution with H2O); the Fluorescein labeled-MAP2K1 (Life Tech, Cat #PV4812) was diluted to 0.5 μM; ATP (Life Tech, cat #PV3227) was diluted to 20 μM; 2.5 μl of each diluted reagent was added to a 384-well (PerkinElmer, ProxiPlate-384 Plus, 6008280) plate and mixed together; 2.54, serial diluted compounds were added into the mixture. 104, 400-fold diluted LanthaScreen Tb-pMAP2K1 (pSer217/221) antibody (Life Tech, cat #PV4817) was then added to each kinase reaction. The reactions were incubated at Room Temperature for 1 hour. The plate was then read on PHERAstar FSX using 340/490/520 module. Inhibition data were calculated by comparison to vehicle control wells for 0% inhibition and non-stimulated control wells for 100% inhibition. Dose response curves were then generated to determine the concentration required to suppress 50% of enzymatic response (IC50) as derived by non-linear regression analysis using GraphPad Prism."}, "[2]": {"test_system": "NCI-H358 (KRAS^G12C) non-small cell lung cancer cell", "assay": "NCI-H358 Cancer Cell Growth Inhibition Assay (CellTiter-Glo)", "assay_type": "cell-based, human", "conditions": "for GI50: Homo sapiens, 72 h, NCI-H358 cells, incubated for 3 days, CellTiter-Glo", "method": "Activity of human NCI-H358 (KRAS^G12C) non-small cell lung cancer cell growth inhibition was assessed in vitro using CellTiter-Glo® Luminescent Cell Viability Assay. The assay was performed according to the kit instructions (Promega, cat #G7570). Briefly, NCI-H358 cells (ATCC, #CRL-5807) were seeded in 96-well plates at a density of 2,500 cells/well in and cells were cultured overnight in a humidified, 5% CO2 cell culture incubator at 37° C. 10 μL serial diluted compounds were added into each cell-culture well and incubated for 3 days. 100 μL CellTiter-Glo® Reagent was added into each well. The reactions were incubated at Room Temperature for 10 minutes, and luminescence signals were recorded on a Tecan Luminescence Plate Reader. Inhibition data were calculated by comparison to vehicle control wells for 0% inhibition and non-stimulated control wells for 100% inhibition. Dose response curves were then generated to determine the concentration required to suppress 50% of cellular growth response (GI50) as derived by non-linear regression analysis using GraphPad Prism."}}, "data": [{"compound": "Cc1ccc(NC(=O)c2ccc3c(c2)CC3)cc1-c1cc(OCCO)nc(N2CCOCC2)c1", "note": "[Example 2, N-(3-(2-(2-hydroxyethoxy)-6-morpholinopyridin-4-yl)-4-methylphenyl)bicyclo[4.2.0]octa-1(6),2,4-triene-3-carboxamide]", "values": [{"measurement": "IC50", "setting": "human recombinant cRAF", "result": 7.9, "unit": "nM"}, {"measurement": "IC50", "setting": "human recombinant BRAF", "result": 38.5, "unit": "nM"}, {"measurement": "IC50", "setting": "[1]", "result": 18, "unit": "nM"}]}, {"compound": "Cc1ccc(NC(=O)c2ccc3c(c2)C(F)(F)CC3)cc1-c1cc(OCCO)nc(N2CCOCC2)c1", "note": "[Example 3, 3,3-difluoro-N-(3-(2-(2-hydroxyethoxy)-6-morpholinopyridin-4-yl)-4-methylphenyl)-2,3-dihydro-1H-indene-5-carboxamide]", "values": [{"measurement": "IC50", "setting": "human recombinant cRAF", "result": 27, "unit": "nM"}, {"measurement": "IC50", "setting": "human recombinant BRAF", "result": 170, "unit": "nM"}, {"measurement": "IC50", "setting": "[1]", "result": 88, "unit": "nM"}]}, {"compound": "Cc1ccc(NC(=O)c2ccc3c(c2)C(F)(F)CO3)cc1-c1cc(OCCO)nc(N2CCOCC2)c1", "note": "[Example 4, 3,3-difluoro-N-(3-(2-(2-hydroxyethoxy)-6-morpholinopyridin-4-yl)-4-methylphenyl)-2,3-dihydrobenzofuran-5-carboxamide]", "values": [{"measurement": "IC50", "setting": "human recombinant cRAF", "result": 51, "unit": "nM"}, {"measurement": "IC50", "setting": "human recombinant BRAF", "result": 260, "unit": "nM"}, {"measurement": "IC50", "setting": "[1]", "result": 96, "unit": "nM"}]}, {"compound": "Cc1ccc(NC(=O)c2ccc3c(c2)CCC3(F)F)cc1-c1cc(OCCO)nc(N2CCOCC2)c1", "note": "[Example 5, 1,1-difluoro-N-(3-(2-(2-hydroxyethoxy)-6-morpholinopyridin-4-yl)-4-methylphenyl)-2,3-dihydro-1H-indene-5-carboxamide]", "values": [{"measurement": "IC50", "setting": "human recombinant cRAF", "result": 39, "unit": "nM"}, {"measurement": "IC50", "setting": "human recombinant BRAF", "result": 92, "unit": "nM"}, {"measurement": "IC50", "setting": "[1]", "result": 65, "unit": "nM"}]}, {"compound": "Cc1ccc(NC(=O)c2cnc3c(c2)CCC3(F)F)cc1-c1cc(OCCO)nc(N2CCOCC2)c1", "note": "[Example 6, 7,7-difluoro-N-(3-(2-(2-hydroxyethoxy)-6-morpholinopyridin-4-yl)-4-methylphenyl)-6,7-dihydro-5H-cyclopenta[b]pyridine-3-carboxamide]", "values": [{"measurement": "IC50", "setting": "human recombinant cRAF", "result": 3.9, "unit": "nM"}, {"measurement": "IC50", "setting": "human recombinant BRAF", "result": 26, "unit": "nM"}, {"measurement": "IC50", "setting": "[1]", "result": 8.4, "unit": "nM"}]}, {"compound": "Cc1ccc(NC(=O)c2cnc3c(c2)C(F)(F)CC3)cc1-c1cc(OCCO)nc(N2CCOCC2)c1", "note": "[Example 7, 5,5-difluoro-N-(3-(2-(2-hydroxyethoxy)-6-morpholinopyridin-4-yl)-4-methylphenyl)-6,7-dihydro-5H-cyclopenta[b]pyridine-3-carboxamide]", "values": [{"measurement": "IC50", "setting": "human recombinant cRAF", "result": 10, "unit": "nM"}, {"measurement": "IC50", "setting": "human recombinant BRAF", "result": 46, "unit": "nM"}, {"measurement": "IC50", "setting": "[1]", "result": 18, "unit": "nM"}, {"measurement": "cell growth inhibition in H358 cancer line compared to LXH254", "setting": "[2]", "result": "better or similar cell growth inhibition"}, {"measurement": "GI50", "setting": "[2]", "result": 2800, "unit": "nM"}]}, {"compound": "Cc1ccc(NC(=O)c2ccc3c(c2)OC(C)(C)O3)cc1-c1cc(OCCO)nc(N2CCOCC2)c1", "note": "[Example 8, N-(3-(2-(2-hydroxyethoxy)-6-morpholinopyridin-4-yl)-4-methylphenyl)-2,2-dimethylbenzo[d][1,3]dioxole-5-carboxamide]", "values": [{"measurement": "IC50", "setting": "human recombinant cRAF", "result": 25, "unit": "nM"}, {"measurement": "IC50", "setting": "human recombinant BRAF", "result": 140, "unit": "nM"}, {"measurement": "IC50", "setting": "[1]", "result": 62, "unit": "nM"}, {"measurement": "cell growth inhibition in H358 cancer line compared to LXH254", "setting": "[2]", "result": "better or similar cell growth inhibition"}, {"measurement": "GI50", "setting": "[2]", "result": 220, "unit": "nM"}]}, {"compound": "Cc1ccc(NC(=O)c2ccc3c(c2)OCO3)cc1-c1cc(OCCO)nc(N2CCOCC2)c1", "note": "[Example 9, N-(3-(2-(2-hydroxyethoxy)-6-morpholinopyridin-4-yl)-4-methylphenyl)benzo[d][1,3]dioxole-5-carboxamide]", "values": [{"measurement": "IC50", "setting": "human recombinant cRAF", "result": 6.7, "unit": "nM"}, {"measurement": "IC50", "setting": "human recombinant BRAF", "result": 42, "unit": "nM"}, {"measurement": "IC50", "setting": "[1]", "result": 18, "unit": "nM"}, {"measurement": "cell growth inhibition in H358 cancer line compared to LXH254", "setting": "[2]", "result": "better or similar cell growth inhibition"}, {"measurement": "GI50", "setting": "[2]", "result": 1600, "unit": "nM"}]}, {"compound": "Cc1ccc(NC(=O)c2cc3c(cn2)OC(F)(F)O3)cc1-c1cc(OCCO)nc(N2CCOCC2)c1", "note": "[Example 10, 2,2-difluoro-N-(3-(2-(2-hydroxyethoxy)-6-morpholinopyridin-4-yl)-4-methylphenyl)-[1,3]dioxolo[4,5-c]pyridine-6-carboxamide]", "values": [{"measurement": "IC50", "setting": "human recombinant cRAF", "result": 25, "unit": "nM"}, {"measurement": "IC50", "setting": "human recombinant BRAF", "result": 95, "unit": "nM"}, {"measurement": "IC50", "setting": "[1]", "result": 55, "unit": "nM"}, {"measurement": "cell growth inhibition in H358 cancer line compared to LXH254", "setting": "[2]", "result": "better or similar cell growth inhibition"}, {"measurement": "GI50", "setting": "[2]", "result": 85, "unit": "nM"}]}, {"compound": "Cc1ncc(NC(=O)c2ccc3c(c2)OC(F)(F)O3)cc1-c1cc(OCCO)nc(N2CCOCC2)c1", "note": "[Example 11, 2,2-difluoro-N-(2′-(2-hydroxyethoxy)-2-methyl-6′-morpholino-[3,4′-bipyridin]-5-yl)benzo[d][1,3]dioxole-5-carboxamide]", "values": [{"measurement": "IC50", "setting": "human recombinant cRAF", "result": 10, "unit": "nM"}, {"measurement": "IC50", "setting": "human recombinant BRAF", "result": 70, "unit": "nM"}, {"measurement": "IC50", "setting": "[1]", "result": 39, "unit": "nM"}]}, {"compound": "Cc1ccc(NC(=O)c2ccc3c(c2)OCCO3)cc1-c1cc(OCCO)nc(N2CCOCC2)c1", "note": "[Example 13, N-(3-(2-(2-hydroxyethoxy)-6-morpholinopyridin-4-yl)-4-methylphenyl)-2,3-dihydrobenzo[b][1,4]dioxine-6-carboxamide]", "values": [{"measurement": "IC50", "setting": "human recombinant cRAF", "result": 4.7, "unit": "nM"}, {"measurement": "IC50", "setting": "human recombinant BRAF", "result": 31, "unit": "nM"}, {"measurement": "IC50", "setting": "[1]", "result": 13, "unit": "nM"}, {"measurement": "cell growth inhibition in H358 cancer line compared to LXH254", "setting": "[2]", "result": "better or similar cell growth inhibition"}, {"measurement": "GI50", "setting": "[2]", "result": 1200, "unit": "nM"}]}]}
